Read-outs that look alike come from different tables or passages of the source.
Columns and labels:
[1] = test system: Key Broadleaf Weed and Crop Species; assay: Post-emergent Test II herbicidal activity (Table 5); assay type: in vivo; conditions: post-emergence, 336 h, post-emergent, 14 days after application; for pest or weed control at 70 g/ha: 70 g ai/ha; for pest or weed control at 140 g/ha: 140 g ai/ha
Method in brief: (§1)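 Visual injury ratings (0 = no injury, 100 = complete kill) were taken 14 d after treatment, relative to untreated plants. Seedlings at the first–second true leaf stage received overhead spray at 187 L/ha; the highest rate was serially diluted to ½×, ¼×, ⅛× and 1/16×.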

[2] = test system: Key Grass and Sedge Weeds as well as Grass Crops; assay: Post-emergent Test II herbicidal activity (Table 6); assay type: in vivo; conditions: post-emergence, 336 h; for pest or weed control at 70 g/ha: application rate 70 g ai/ha; for pest or weed control at 140 g/ha: application rate 140 g ai/ha
Method in brief: as §1

[3] = ABUTH: velvetleaf (Abutilon theophrasti), read-out: Visual Growth Reduction (%) 14 Days After Application ABUTH
[4] = AMARE: redroot pigweed (Amaranthus retroflexus), read-out: Visual Growth Reduction (%) 14 Days After Application AMARE
[5] = BRSNN: oilseed-rape, canola (Brassica napus), read-out: Visual Growth Reduction (%) 14 Days After Application BRSNN
[6] = CHEAL: lambsquarters (Chenopodium album), read-out: Visual Growth Reduction (%) 14 Days After Application CHEAL
[7] = EPHHL: wild poinsettia (Euphorbia heterophylla), read-out: Visual Growth Reduction (%) 14 Days After Application EPHHL
[8] = HELAN: sunflower (Helianthus annuus), read-out: Visual Growth Reduction (%) 14 Days After Application HELAN
[9] = VIOTR: wild pansy (Viola tricolor), read-out: Visual Growth Reduction (%) 14 Days After Application VIOTR
[10] = CYPES: yellow nutsedge (Cyperus esculentus), read-out: Visual Growth Reduction (%) 14 Days After Application, CYPES
[11] = DIGSA: crabgrass (Digitaria sanguinalis), read-out: Visual Growth Reduction (%) 14 Days After Application, DIGSA
[12] = ECHCG: barnyardgrass (Echinochloa crus-galli), read-out: Visual Growth Reduction (%) 14 Days After Application, ECHCG
[13] = ORYSA: rice (Oryza sativa), read-out: Visual Growth Reduction (%) 14 Days After Application, ORYSA
[14] = SETFA: giant foxtail (Setaria faberi), read-out: Visual Growth Reduction (%) 14 Days After Application, SETFA
[15] = SORVU: grain sorghum (Sorghum vulgare), read-out: Visual Growth Reduction (%) 14 Days After Application, SORVU
[16] = TRZSS (wheat, Triticum aestivum), read-out: Visual Growth Reduction (%) 14 Days After Application, TRZSS
[17] = ZEAMX: maize, corn (Zea mays), read-out: Visual Growth Reduction (%) 14 Days After Application, ZEAMX

## COC(=O)c1nc(-c2cc(F)c(C(F)(F)F)cc2F)cc(N)c1Cl [Compound 70, methyl 4-amino-3-chloro-6-(2,5-difluoro-4-(trifluoromethyl)phenyl)picolinate]
[1]; [3]
  pest or weed control at 70 g/ha: 95 to 100%
  pest or weed control at 140 g/ha: 95 to 100%
[1]; [4]
  pest or weed control at 70 g/ha: 95 to 100%
  pest or weed control at 140 g/ha: 95 to 100%
[1]; [5]
  pest or weed control at 70 g/ha: 75 to 84%
  pest or weed control at 140 g/ha: 85 to 94%
[1]; [6]
  pest or weed control at 70 g/ha: 95 to 100%
  pest or weed control at 140 g/ha: 95 to 100%
[1]; [7]
  pest or weed control at 70 g/ha: 95 to 100%
  pest or weed control at 140 g/ha: 95 to 100%
[1]; [8]
  pest or weed control at 70 g/ha: 85 to 94%
  pest or weed control at 140 g/ha: 95 to 100%
[1]; [9]
  pest or weed control at 70 g/ha: 60 to 74%
  pest or weed control at 140 g/ha: 75 to 84%
[2]; [10]
  pest or weed control at 70 g/ha: 95 to 100%
  pest or weed control at 140 g/ha: 95 to 100%
[2]; [11]
  pest or weed control at 70 g/ha: 85 to 94%
  pest or weed control at 140 g/ha: 95 to 100%
[2]; [12]
  pest or weed control at 70 g/ha: 85 to 94%
  pest or weed control at 140 g/ha: 95 to 100%
[2]; [13]
  pest or weed control at 70 g/ha: 0 to 29%
  pest or weed control at 140 g/ha: 0 to 29%
[2]; [14]
  pest or weed control at 70 g/ha: 30 to 44%
  pest or weed control at 140 g/ha: 60 to 74%
[2]; [15]
  pest or weed control at 70 g/ha: 85 to 94%
  pest or weed control at 140 g/ha: 95 to 100%
[2]; [16]
  pest or weed control at 70 g/ha: 75 to 84%
  pest or weed control at 140 g/ha: 85 to 94%
[2]; [17]
  pest or weed control at 70 g/ha: 95 to 100%
  pest or weed control at 140 g/ha: 95 to 100%

— US9113629B2, “4-amino-6-(4-substituted-phenyl)-picolinates and 6-amino-2-(4-substituted-phenyl)-pyrimidine-4-carboxylates and their use as herbicides” (DOW AGROSCIENCES LLC, priority 2013, dated 2015)
